Source: PubChem BioAssay (NCI)
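At the GI50, growth is halved. The concentration for full growth arrest is given as TGI.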

Legend:
Experiment in all cases: NCI-60 cell line screen, 384-well format
OVCAR-5 ovarian = system: OVCAR-5 ovarian
SF-539 CNS = system: SF-539 CNS
OVCAR-8 ovarian = system: OVCAR-8 ovarian
SF-268 CNS = system: SF-268 CNS
MCF7 breast = system: MCF7 breast
SK-MEL-5 melanoma = system: SK-MEL-5 melanoma
ACHN renal = system: ACHN renal
MDA-MB-468 breast = system: MDA-MB-468 breast
PC-3 prostate = system: PC-3 prostate
DU-145 prostate = system: DU-145 prostate
UO-31 renal = system: UO-31 renal
HCT-15 colon = system: HCT-15 colon
NCI-H522 lung = system: NCI-H522 lung
TK-10 renal = system: TK-10 renal
UACC-257 melanoma = system: UACC-257 melanoma
OVCAR-4 ovarian = system: OVCAR-4 ovarian
HCC-2998 colon = system: HCC-2998 colon
HL-60(TB) leukemia = system: HL-60(TB) leukemia
NCI/ADR-RES ovarian = system: NCI/ADR-RES ovarian
LOX IMVI melanoma = system: LOX IMVI melanoma
T-47D breast = system: T-47D breast
HOP-62 NSCLC = system: HOP-62 NSCLC
NCI-H460 NSCLC = system: NCI-H460 NSCLC
COLO 205 colon = system: COLO 205 colon
A549 NSCLC = system: A549 NSCLC
786-0 renal = system: 786-0 renal
SK-MEL-28 melanoma = system: SK-MEL-28 melanoma
MALME-3M melanoma = system: MALME-3M melanoma
SK-MEL-2 melanoma = system: SK-MEL-2 melanoma
NCI-H23 lung = system: NCI-H23 lung
CCRF-CEM leukemia = system: CCRF-CEM leukemia
IGROV1 ovarian = system: IGROV1 ovarian
KM12 colon = system: KM12 colon
SR leukemia = system: SR leukemia
HS 578T breast = system: HS 578T breast
NCI-H322M lung = system: NCI-H322M lung
M14 melanoma = system: M14 melanoma
MDA-MB-231 breast = system: MDA-MB-231 breast
OVCAR-3 ovarian = system: OVCAR-3 ovarian
U251 glioblastoma = system: U251 glioblastoma
SF-295 CNS = system: SF-295 CNS
HT29 colon = system: HT29 colon
A498 renal = system: A498 renal
SNB-19 CNS = system: SNB-19 CNS
SK-OV-3 ovarian = system: SK-OV-3 ovarian
RPMI-8226 leukemia = system: RPMI-8226 leukemia
UACC-62 melanoma = system: UACC-62 melanoma

## Cc1ccc(-c2nc(N)nc3c2nnn3Cc2cccc(CO[C@H]3CCOC3)n2)o1
OVCAR-5 ovarian
  GI50: > 100 µM
  TGI: > 100 µM
SF-539 CNS
  GI50: > 100 µM
  TGI: > 100 µM
OVCAR-8 ovarian
  GI50: > 100 µM
  TGI: > 100 µM
SF-268 CNS
  GI50: > 100 µM
  TGI: > 100 µM
MCF7 breast
  GI50: > 100 µM
  TGI: > 100 µM
SK-MEL-5 melanoma
  GI50: > 53.9 µM
  TGI: > 100 µM
ACHN renal
  GI50: > 100 µM
  TGI: > 100 µM
MDA-MB-468 breast
  GI50: 35.5 µM
  TGI: 99 µM
PC-3 prostate
  GI50: > 100 µM
  TGI: > 100 µM
DU-145 prostate
  GI50: > 100 µM
  TGI: > 100 µM
UO-31 renal
  GI50: > 100 µM
  TGI: > 100 µM
HCT-15 colon
  GI50: > 100 µM
  TGI: > 100 µM
NCI-H522 lung
  GI50: > 100 µM
  TGI: > 100 µM
TK-10 renal
  GI50: > 100 µM
  TGI: > 100 µM
UACC-257 melanoma
  GI50: > 100 µM
  TGI: > 100 µM
OVCAR-4 ovarian
  GI50: > 100 µM
  TGI: > 100 µM
HCC-2998 colon
  GI50: > 100 µM
  TGI: > 100 µM
HL-60(TB) leukemia
  GI50: > 64.3 µM
  TGI: > 100 µM
NCI/ADR-RES ovarian
  GI50: > 77.1 µM
  TGI: > 100 µM
LOX IMVI melanoma
  GI50: > 100 µM
  TGI: > 100 µM
T-47D breast
  GI50: 32.4 µM
  TGI: > 100 µM
HOP-62 NSCLC
  GI50: > 100 µM
  TGI: > 100 µM
NCI-H460 NSCLC
  GI50: > 100 µM
  TGI: > 100 µM
COLO 205 colon
  GI50: > 100 µM
  TGI: > 100 µM
A549 NSCLC
  GI50: > 100 µM
  TGI: > 100 µM
786-0 renal
  GI50: > 100 µM
  TGI: > 100 µM
SK-MEL-28 melanoma
  GI50: > 100 µM
  TGI: > 100 µM
MALME-3M melanoma
  GI50: > 100 µM
  TGI: > 100 µM
SK-MEL-2 melanoma
  GI50: > 100 µM
  TGI: > 100 µM
NCI-H23 lung
  GI50: > 100 µM
  TGI: > 100 µM
CCRF-CEM leukemia
  GI50: 72 µM
  TGI: > 100 µM
IGROV1 ovarian
  GI50: > 100 µM
  TGI: > 100 µM
KM12 colon
  GI50: > 100 µM
  TGI: > 100 µM
SR leukemia
  GI50: > 73.2 µM
  TGI: > 100 µM
HS 578T breast
  GI50: > 100 µM
  TGI: > 100 µM
NCI-H322M lung
  GI50: > 100 µM
  TGI: > 100 µM
M14 melanoma
  GI50: > 100 µM
  TGI: > 100 µM
MDA-MB-231 breast
  GI50: 88.2 µM
  TGI: > 100 µM
OVCAR-3 ovarian
  GI50: > 100 µM
  TGI: > 100 µM
U251 glioblastoma
  GI50: > 100 µM
  TGI: > 100 µM
SF-295 CNS
  GI50: > 100 µM
  TGI: > 100 µM
HT29 colon
  GI50: > 100 µM
  TGI: > 100 µM
A498 renal
  GI50: > 100 µM
  TGI: > 100 µM
SNB-19 CNS
  GI50: > 100 µM
  TGI: > 100 µM
SK-OV-3 ovarian
  GI50: > 100 µM
  TGI: > 100 µM
RPMI-8226 leukemia
  GI50: 93.6 µM
  TGI: > 100 µM
UACC-62 melanoma
  GI50: > 100 µM
  TGI: > 100 µM

## Cc1cc(-c2nnc(N)nc2-c2ccc(F)cc2)cc(Cl)n1
OVCAR-5 ovarian
  GI50: > 100 µM
  TGI: > 100 µM
SF-539 CNS
  GI50: > 100 µM
  TGI: > 100 µM
OVCAR-8 ovarian
  GI50: > 92.6 µM
  TGI: > 100 µM
SF-268 CNS
  GI50: > 100 µM
  TGI: > 100 µM
MCF7 breast
  GI50: > 100 µM
  TGI: > 100 µM
SK-MEL-5 melanoma
  GI50: 88 µM
  TGI: > 100 µM
ACHN renal
  GI50: > 100 µM
  TGI: > 100 µM
MDA-MB-468 breast
  GI50: 16.6 µM
  TGI: 68.3 µM
PC-3 prostate
  GI50: > 73.2 µM
  TGI: > 100 µM
DU-145 prostate
  GI50: > 100 µM
  TGI: > 100 µM
UO-31 renal
  GI50: 88.6 µM
  TGI: > 100 µM
HCT-15 colon
  GI50: > 100 µM
  TGI: > 100 µM
NCI-H522 lung
  GI50: 42.9 µM
  TGI: > 100 µM
TK-10 renal
  GI50: 44.3 µM
  TGI: > 100 µM
UACC-257 melanoma
  GI50: 66.5 µM
  TGI: > 100 µM
OVCAR-4 ovarian
  GI50: > 91.2 µM
  TGI: > 100 µM
HCC-2998 colon
  GI50: > 100 µM
  TGI: > 100 µM
HL-60(TB) leukemia
  GI50: 36.5 µM
  TGI: > 100 µM
NCI/ADR-RES ovarian
  GI50: 25.3 µM
  TGI: 86.3 µM
LOX IMVI melanoma
  GI50: > 100 µM
  TGI: > 100 µM
T-47D breast
  GI50: 35.7 µM
  TGI: > 100 µM
HOP-62 NSCLC
  GI50: > 82.1 µM
  TGI: > 100 µM
NCI-H460 NSCLC
  GI50: > 89.7 µM
  TGI: > 100 µM
COLO 205 colon
  GI50: > 100 µM
  TGI: > 100 µM
A549 NSCLC
  GI50: > 100 µM
  TGI: > 100 µM
786-0 renal
  GI50: > 100 µM
  TGI: > 100 µM
SK-MEL-28 melanoma
  GI50: > 100 µM
  TGI: > 100 µM
MALME-3M melanoma
  GI50: > 100 µM
  TGI: > 100 µM
SK-MEL-2 melanoma
  GI50: > 100 µM
  TGI: > 100 µM
NCI-H23 lung
  GI50: 32.5 µM
  TGI: > 100 µM
CCRF-CEM leukemia
  GI50: 48.3 µM
  TGI: > 100 µM
IGROV1 ovarian
  GI50: > 90.4 µM
  TGI: > 100 µM
KM12 colon
  GI50: > 87.1 µM
  TGI: > 100 µM
SR leukemia
  GI50: 33.9 µM
  TGI: > 100 µM
HS 578T breast
  GI50: 62.8 µM
  TGI: > 100 µM
NCI-H322M lung
  GI50: > 100 µM
  TGI: > 100 µM
M14 melanoma
  GI50: > 100 µM
  TGI: > 100 µM
MDA-MB-231 breast
  GI50: > 85.7 µM
  TGI: > 100 µM
OVCAR-3 ovarian
  GI50: > 81.9 µM
  TGI: > 100 µM
U251 glioblastoma
  GI50: > 75.5 µM
  TGI: > 100 µM
SF-295 CNS
  GI50: > 84.4 µM
  TGI: > 100 µM
HT29 colon
  GI50: > 100 µM
  TGI: > 100 µM
A498 renal
  GI50: > 100 µM
  TGI: > 100 µM
SNB-19 CNS
  GI50: > 100 µM
  TGI: > 100 µM
SK-OV-3 ovarian
  GI50: > 100 µM
  TGI: > 100 µM
RPMI-8226 leukemia
  GI50: 20.3 µM
  TGI: > 61.2 µM
UACC-62 melanoma
  GI50: 75.7 µM
  TGI: > 100 µM
